In patent publication US10047074B2, “Pharmaceutical compound” (IOmet Pharma Ltd., priority 2014, dated 2018):

Columns and labels:
[1] = molecular target: Recombinant human IDO (Homo sapiens, UniProt P14902); test: hIDO biochemical assay (coupled with formamidase); conditions: coupled with kynurenine formamidase, fluorescence
Procedure: (§1) Exemplary compounds of the invention were prepared, and tested to determine their effect as TDO and/or IDO inhibitors. Two different assays were employed: 1. a cell-based assay for detecting the effect of test compounds on kynurenine production in two different cancer cell types. This assay utilised cancer cells which expressed either TDO (A172) or IDO (SKOV3) and as such was used as a means of testing compound activity at these two enzymes in a cell-based context. 2. a TDO and IDO biochemical coupled assay which utilised recombinantly produced and purified TDO and IDO enzymes in combination with the enzyme formamidase. This coupled enzyme system allowed conversion of N-formylkynurenine produced by TDO or IDO activity to kynurenine which was then quantified by fluorescence following addition of Erhlich's Reagent The protocols for these are set out below.
(§2) TDO and IDO Biochemical Coupled Assay
(§3) Recombinant human IDO or TDO was incubated in 50 mM KPO4 (pH 7.0), 0.5 mM EGTA, 0.5 mM EDTA, 0.05% Triton™ X100, 20 mM ascorbate, […] methylene blue, 500 U/ml catalase, 50 μg/ml KynB (kynurenine formamidase). TDO assays were carried out in the presence of 330 μM L-tryptophan, while IDO assays had the addition of 45 µM L-tryptophan. After incubation for 17 minutes at room temperature the reactions were stopped by the addition of Erhlich's reagent and incubated at room temperature for 5 minutes before the fluorescence was read (Ex475, Em530).

[2] = molecular target: T1, IDO (SKOV3) (Homo sapiens, UniProt P14902); test: SKOV3 Kynurenine cell based assay; conditions: SKOV3 human ovarian adenocarcinoma cells, IDO induced by IFN-γ; kynurenine production, 48 hours
T1 construct: IDO expression was induced in the SKOV3 cells by the addition of 500 ng/ml IFN-γ; endogenous in cells; host or cells: SKOV3 (human ovarian adenocarcinoma), IFN-γ induced
Procedure: as §1
(§4) Cell Based Assay for Detection of Kynurenine Produced by TDO and/or IDO
(§5) A172 (human glioblastoma) and SKOV3 (human ovarian adenocarcinoma) cells were seeded in a 96 well plate at 30,000 or 40,000 cells per well respectively in phenol red-free RPMI supplemented with 10% FCS, 2 mM L-glutamine and 500 µM L-tryptophan. IDO expression was induced in the SKOV3 cells by the addition of 500 ng/ml IFN-γ. Cells were incubated at 37° C. with or without the addition of test compound. After 48 hours, the cells were removed by centrifugation and Erhlich's reagent was added to the supernatant.

[3] = molecular target: T2, TDO (A172) (Homo sapiens, UniProt P48775); test: A172 Kynurenine cell based assay; conditions: A172 human glioblastoma cells expressing TDO; kynurenine production, 48 hours
T2 construct: This assay utilised cancer cells which expressed either TDO (A172) or IDO (SKOV3); endogenous in cells; host or cells: A172 (human glioblastoma)
Procedure: as §1, §4
as §5, with “supernatant. The Erhlich's reagent was incubated for 5 minutes before the absorbance was read at 490 nm.” for “supernatant.”

[4] = molecular target: Recombinant human TDO (Homo sapiens, UniProt P48775); test: hTDO biochemical assay (coupled with formamidase); conditions: 330 μM L-tryptophan, coupled with kynurenine formamidase, fluorescence
Procedure: as §1, §2, §3

Chain of Recombinant human TDO (P48775 whole entry): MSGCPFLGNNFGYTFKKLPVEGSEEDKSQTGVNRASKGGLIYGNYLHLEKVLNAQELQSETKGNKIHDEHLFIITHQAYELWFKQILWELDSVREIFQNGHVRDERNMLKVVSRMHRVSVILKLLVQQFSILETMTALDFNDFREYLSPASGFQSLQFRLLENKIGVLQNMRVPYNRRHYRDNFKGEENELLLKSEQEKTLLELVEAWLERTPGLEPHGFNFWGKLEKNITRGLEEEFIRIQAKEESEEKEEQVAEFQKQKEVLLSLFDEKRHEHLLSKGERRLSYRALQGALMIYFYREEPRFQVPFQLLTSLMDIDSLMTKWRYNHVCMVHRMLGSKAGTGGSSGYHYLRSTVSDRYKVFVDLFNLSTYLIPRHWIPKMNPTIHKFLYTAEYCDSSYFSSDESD
T2 sequence (P48775 whole entry): as above
T1 sequence (P14902 whole entry): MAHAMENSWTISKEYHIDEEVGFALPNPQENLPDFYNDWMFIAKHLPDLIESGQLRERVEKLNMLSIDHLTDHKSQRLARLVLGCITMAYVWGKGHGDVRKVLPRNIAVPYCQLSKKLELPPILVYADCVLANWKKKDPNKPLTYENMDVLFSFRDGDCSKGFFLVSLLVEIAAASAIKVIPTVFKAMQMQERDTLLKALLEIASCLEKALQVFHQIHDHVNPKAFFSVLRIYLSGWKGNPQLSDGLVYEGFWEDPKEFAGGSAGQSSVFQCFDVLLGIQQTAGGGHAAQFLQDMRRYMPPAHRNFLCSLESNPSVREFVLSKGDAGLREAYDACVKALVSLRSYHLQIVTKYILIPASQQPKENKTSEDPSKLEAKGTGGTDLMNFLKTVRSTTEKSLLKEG
Chain of Recombinant human IDO (P14902 whole entry): as above

hIDO biochemical assay pIC50 [1] | SKOV3 Kynurenine cell based assay pIC50 [2] | A172 Kynurenine cell based assay pIC50 [3] | hTDO biochemical assay pIC50 [4] | Structure (SMILES)
++ (++ = pIC50 4.50-5.49) | ++ (++ = pIC50 4.50-5.49) | +++ (+++ = pIC50 ≥ 5.50) | + (+ = pIC50 4.00-4.49) | Nc1noc(N)c1-c1cccc(Cl)c1 [Compound 5]
+/− (+/− = pIC50 < 4.00) | ++ (++ = pIC50 4.50-5.49) | +++ (+++ = pIC50 ≥ 5.50) | + (+ = pIC50 4.00-4.49) | O=C(Nc1oncc1-c1ccccc1)c1ccccc1 [Compound 49]
++ (++ = pIC50 4.50-5.49) | + (+ = pIC50 4.00-4.49) | +/− (+/− = pIC50 < 4.00) | +/− (+/− = pIC50 < 4.00) | CC(C)CS(=O)(=O)Nc1cnoc1-c1ccccc1 [Compound 80]
++ (++ = pIC50 4.50-5.49) | ++ (++ = pIC50 4.50-5.49) | +++ (+++ = pIC50 ≥ 5.50) | ++ (++ = pIC50 4.50-5.49) | Nc1oncc1-c1ccc(F)cc1 [Compound 1]
++ (++ = pIC50 4.50-5.49) | ++ (++ = pIC50 4.50-5.49) | ++ (++ = pIC50 4.50-5.49) | ++ (++ = pIC50 4.50-5.49) | CC(C)C(=O)Nc1oncc1-c1ccccc1 [Compound 34]
++ (++ = pIC50 4.50-5.49) | ++ (++ = pIC50 4.50-5.49) | +++ (+++ = pIC50 ≥ 5.50) | ++ (++ = pIC50 4.50-5.49) | Nc1oncc1-c1ccccc1 [Compound 7]
++ (++ = pIC50 4.50-5.49) | ++ (++ = pIC50 4.50-5.49) | +++ (+++ = pIC50 ≥ 5.50) | + (+ = pIC50 4.00-4.49) | Nc1oncc1-c1cccc(F)c1 [Compound 13]
– | +/− (+/− = pIC50 < 4.00) | ++ (++ = pIC50 4.50-5.49) | – | O=C(Nc1oncc1-c1ccccc1)C1CCCN1 (stereo not drawn) [Compound 66]
– | ++ (++ = pIC50 4.50-5.49) | ++ (++ = pIC50 4.50-5.49) | – | O=C(Nc1oncc1-c1ccccc1)c1ccccc1 [Compound 18]
– | ++ (++ = pIC50 4.50-5.49) | +++ (+++ = pIC50 ≥ 5.50) | – | NCC(=O)Nc1oncc1-c1ccccc1 [Compound 73]
– | + (+ = pIC50 4.00-4.49) | +/− (+/− = pIC50 < 4.00) | – | CS(=O)(=O)c1ccc(Cl)c(S(=O)(=O)Nc2cnoc2-c2ccccc2)c1 [Compound 55]
– | ++ (++ = pIC50 4.50-5.49) | +++ (+++ = pIC50 ≥ 5.50) | – | O=C(Nc1oncc1-c1ccccc1)c1ccccn1 [Compound 40]
– | +/− (+/− = pIC50 < 4.00) | + (+ = pIC50 4.00-4.49) | – | O=C(O)CCC(=O)Nc1oncc1-c1ccccc1 [Compound 33]
– | + (+ = pIC50 4.00-4.49) | + (+ = pIC50 4.00-4.49) | – | O=C(Nc1oncc1-c1ccccc1)C(O)C1CCCCC1 (stereo not drawn) [Compound 74]
– | + (+ = pIC50 4.00-4.49) | ++ (++ = pIC50 4.50-5.49) | – | CC(=O)N1CCC(C(=O)Nc2oncc2-c2ccccc2)CC1 [Compound 35]
– | + (+ = pIC50 4.00-4.49) | ++ (++ = pIC50 4.50-5.49) | – | CN(C)C(=O)CNc1oncc1-c1ccccc1 [Compound 60]
– | + (+ = pIC50 4.00-4.49) | ++ (++ = pIC50 4.50-5.49) | – | Nc1oncc1-c1ccccn1 [Compound 11]
– | ++ (++ = pIC50 4.50-5.49) | ++ (++ = pIC50 4.50-5.49) | – | CN(C)CC(=O)Nc1oncc1-c1ccccc1 [Compound 37]

hIDO biochemical assay pIC50 [1] | SKOV3 Kynurenine cell based assay pIC50 [2] | A172 Kynurenine cell based assay pIC50 [3] | hTDO biochemical assay pIC50 [4] | Structure (SMILES)
– | + (+ = pIC50 4.00-4.49) | ++ (++ = pIC50 4.50-5.49) | – | Nc1oncc1-c1ccccc1O [Compound 68]
– | ++ (++ = pIC50 4.50-5.49) | +++ (+++ = pIC50 ≥ 5.50) | – | COCC(=O)Nc1oncc1-c1ccccc1 [Compound 25]
– | + (+ = pIC50 4.00-4.49) | +/− (+/− = pIC50 < 4.00) | – | Nc1oncc1-c1ccccc1[N+](=O)[O-] [Compound 67]
– | ++ (++ = pIC50 4.50-5.49) | + (+ = pIC50 4.00-4.49) | – | Nc1oncc1-c1ccccc1Cl [Compound 15]
– | +/− (+/− = pIC50 < 4.00) | ++ (++ = pIC50 4.50-5.49) | – | CS(=O)(=O)NCCC(=O)Nc1oncc1-c1ccccc1 [Compound 48]
– | ++ (++ = pIC50 4.50-5.49) | +++ (+++ = pIC50 ≥ 5.50) | – | Nc1oncc1-c1ccc(Cl)cc1 [Compound 2]
– | ++ (++ = pIC50 4.50-5.49) | + (+ = pIC50 4.00-4.49) | – | O=C(Nc1oncc1-c1ccccc1)c1ccncc1 [Compound 39]
++ (++ = pIC50 4.50-5.49) | ++ (++ = pIC50 4.50-5.49) | ++ (++ = pIC50 4.50-5.49) | – | N#Cc1ccc(-c2cnoc2N)cc1 [Compound 50]
– | ++ (++ = pIC50 4.50-5.49) | ++ (++ = pIC50 4.50-5.49) | – | O=C(Nc1oncc1-c1ccccc1)c1cccnc1 [Compound 62]
– | ++ (++ = pIC50 4.50-5.49) | +/− (+/− = pIC50 < 4.00) | – | O=S(=O)(Nc1cnoc1-c1ccccc1)N1CCCCC1 [Compound 56]
– | + (+ = pIC50 4.00-4.49) | +/− (+/− = pIC50 < 4.00) | – | O=C(Nc1cnoc1-c1ccccc1)c1ccccc1 [Compound 77]
– | + (+ = pIC50 4.00-4.49) | +/− (+/− = pIC50 < 4.00) | – | CC(C)CS(=O)(=O)Nc1cncn1-c1ccccc1 [Compound 72]
– | ++ (++ = pIC50 4.50-5.49) | +++ (+++ = pIC50 ≥ 5.50) | – | Nc1oncc1-c1ccc(F)c(F)c1 [Compound 12]
– | ++ (++ = pIC50 4.50-5.49) | ++ (++ = pIC50 4.50-5.49) | – | COc1ccc(-c2cnoc2N)cc1 [Compound 4]
– | ++ (++ = pIC50 4.50-5.49) | ++ (++ = pIC50 4.50-5.49) | – | Nc1oncc1-c1cccnc1 [Compound 16]
– | + (+ = pIC50 4.00-4.49) | ++ (++ = pIC50 4.50-5.49) | – | Cc1noc(N)c1-c1ccccc1 [Compound 10]
– | + (+ = pIC50 4.00-4.49) | +++ (+++ = pIC50 ≥ 5.50) | – | CN(C)CCC(=O)Nc1oncc1-c1ccccc1 [Compound 69]
– | + (+ = pIC50 4.00-4.49) | ++ (++ = pIC50 4.50-5.49) | – | Cc1noc(N)c1-c1ccc(Cl)cc1 [Compound 9]
